This note sets out measurements from BindingDB's records for PubMed 31759729 (University of Electronic Science and Technology of China, 2020).

This test concerns the target cGMP-specific 3',5'-cyclic phosphodiesterase (Homo sapiens, UniProt O76074). Briefly: Inhibition of PDE-5A (unknown origin).

Molecules are shown by their SMILES.

The compound `CC(C)=CCc1c(O)c2c(c3c1OC(C)(C)C=C3)CC=C(c1ccc3c(c1)OCCO3)C2=O` displayed an IC50 of 2700 nM. In the case of `CC(C)=CCC1=C(O)c2c(occ(-c3ccc(O[N+](=O)[O-])cc3)c2=O)C2C=CC(C)(C)OC12` (configuration not stated), the 50% inhibitory concentration (IC50) came to 500 nM.

A word on the IC50: it is the concentration that gives 50% inhibition.
